Some results are limits rather than exact numbers.

This test has as its target T1, Peptidyl-prolyl cis-trans isomerase ESS1 (Saccharomyces cerevisiae (strain ATCC 204508 / S288c), UniProt P22696).
T1 sequence (P22696 whole entry): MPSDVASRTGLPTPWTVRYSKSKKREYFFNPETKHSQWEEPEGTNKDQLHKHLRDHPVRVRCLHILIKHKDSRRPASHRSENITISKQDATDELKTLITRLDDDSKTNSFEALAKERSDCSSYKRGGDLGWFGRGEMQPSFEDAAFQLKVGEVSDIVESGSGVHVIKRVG
Kind of test: Pin1 Inhibition Assay. The following applies: pH 7; 0 °C. The method, then: Assay was carried out measuring the MCA fluorescence using Suc-Ala-Glu-Pro-Phe-MCA as substrate purchased from Japan Peptide Institute Co.

Consider `COc1ccc(C2CC(O)(c3ccccc3)Oc3c(C)ccc(C)c32)cc1` (stereo not drawn) [4-(4-methoxyphenyl)-5,8-dimethyl-2-phenyl-chroman-2-ol], for which the IC50 came to 5 µM.

In turn, `COc1ccc(Br)cc1[C@H]1[C@@H]2C=CCC[C@@]2(C)C(=O)N1Cc1ccccc1` [(3R,3aR,7aR)-2-benzyl-3-(5-bromo-2-methoxy-phenyl)-7a-methyl-3,3a,6,7-tetrahydroisoindol-1-one] returned an IC50 of 5 µM.

In turn, `COc1ccc(C2/C=C\CN(C(=O)c3ccccc3)CC(=O)N2Cc2ccc(F)cc2)cc1` (stereo not drawn) came in with an IC50 above 10 µM. `CCOC(=O)c1ccc(NC(=O)c2[nH]cnc2C(=O)N[C@@H](CCCCNC(=O)OC(C)(C)C)C(=O)OC(C)(C)C)cc1` [MLS000849609] had an IC50 of 2.5 µM. On to `COc1ccccc1-c1cc(=O)c2c(O)ccc([N+](=O)[O-])c2o1` [MLS000518626], for which the IC50 is above 10 µM.

As for `O=C(O)CN1C(=O)c2cccc3cccc(c23)C1=O` [(1,3-dioxo-1H-benzo[de]isoquinolin-2(3H)-yl)acetic acid], the IC50 was above 10 µM.

With `Cc1cccc(NC(=O)c2[nH]cnc2C(=O)N[C@@H](CCCCNC(=O)OC(C)(C)C)C(=O)OC(C)(C)C)c1` [ILP-IV-14], the IC50 is above 10 µM. On to `CC(C)C[C@H](NC(=O)c1[nH]cnc1C(=O)N1CCc2ccccc2C1)C(=O)OCc1ccccc1` [(2S)-2-[[[5-[3,4-dihydro-1H-isoquinolin-2-yl(oxo)methyl]-1H-imidazol-4-yl]-oxomethyl]amino]-4-methylpentanoic acid (phenylmethyl) ester], for which the IC50 was above 1.5 µM. `CCOC(=O)c1ccc(NC(=O)c2[nH]cnc2C(=O)N[C@@H](Cc2ccccc2)C(=O)OC(C)(C)C)cc1` [ethyl 4-[[5-[[(2S)-1-[(2-methylpropan-2-yl)oxy]-1-oxidanylidene-3-phenyl-propan-2-yl]carbamoyl]-1H-imidazol-4-yl]carbonylamino]benzoate] yielded an IC50 above 10 µM. The same measure for `Cc1ccc(-c2cc([C@H]3[C@@H]4C=CCC[C@@]4(C)C(=O)N3Cc3ccccc3)ccc2F)cc1` [(3R,3aR,7aR)-3-[4-fluoro-3-(4-methylphenyl)phenyl]-7a-methyl-2-(phenylmethyl)-3,3a,6,7-tetrahydroisoindol-1-one]: 5 µM; for `C[C@@]12CCC=C[C@H]1[C@H](c1ccc3ccccc3c1Br)N(Cc1ccccc1)C2=O` [(3R,3aR,7aR)-3-(1-bromanylnaphthalen-2-yl)-7a-methyl-2-(phenylmethyl)-3,3a,6,7-tetrahydroisoindol-1-one]: 1.5 µM; for `CC[C@@H]1CC=C[C@H]2[C@H]1C(=O)N(Cc1ccccc1)[C@H]2c1ccc(OC)c(Cl)c1` [(3R,3aS,7R,7aS)-3-(3-chloranyl-4-methoxy-phenyl)-7-ethyl-2-(phenylmethyl)-3a,6,7,7a-tetrahydro-3H-isoindol-1-one]: 2 µM. Turning to `CC(C)C[C@H](NC(=O)c1[nH]cnc1C(=O)N[C@@H](C)C(=O)OC(C)(C)C)C(=O)OCc1ccccc1` [(phenylmethyl) (2S)-4-methyl-2-[[4-[[(2S)-1-[(2-methylpropan-2-yl)oxy]-1-oxidanylidene-propan-2-yl]carbamoyl]-1H-imidazol-5-yl]carbonylamino]pentanoate], the IC50 is above 10 µM.

Source of the values: BindingDB's records for doi:10.1016/S1074-5521(02)00310-1 (Tohoku University, 2003).
